*1 amine or outer side, *2 acyl side, *3 side chain or, on linkers, in order; H or OH if unused. Where a SMILES comes first, the peptide text is derived from it. Bridges are numbered along the chain shown (N, C = ends). Roman numbers before positions name the chains, in order. [ ]: non-standard residue; d: D form. Actinocin(1to9) = Cc1c2oc3c(C)ccc(C(=O)[*:2])c3nc-2c(C(=O)[*:1])c(N)c1=O; NMeV = CN[C@H](C(=O)O)C(C)C; Sar = CNCC(=O)O
Columns and labels:
Melanocortin receptor 4 = Melanocortin receptor 4 (Homo sapiens, UniProt P32245); assay type: cell membranes, HEK293, Membrane; details: hek293; further: in other assays of this panel Not Active means under 50% inhibition at 10 µM
Melanocortin receptor 4, sequence (P32245 whole entry): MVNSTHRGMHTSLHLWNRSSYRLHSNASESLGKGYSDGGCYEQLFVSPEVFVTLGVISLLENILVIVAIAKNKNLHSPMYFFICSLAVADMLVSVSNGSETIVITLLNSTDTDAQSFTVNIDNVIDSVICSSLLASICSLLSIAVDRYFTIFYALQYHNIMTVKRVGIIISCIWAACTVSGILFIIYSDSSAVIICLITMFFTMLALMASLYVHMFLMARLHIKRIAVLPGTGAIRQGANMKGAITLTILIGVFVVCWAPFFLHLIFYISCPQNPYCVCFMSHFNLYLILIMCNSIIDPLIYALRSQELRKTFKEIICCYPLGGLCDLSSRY

[1] = target: T1, Alpha-1B adrenergic receptor (Rattus norvegicus, UniProt P15823); experiment: DRUGMATRIX: Alpha-1B adrenergic receptor radioligand binding (ligand: prazosin); assay type: cell membranes, Wistar, Liver, Membrane; details: Not Active = under 50% inhibition at 10 µM
T1 sequence (P15823 whole entry): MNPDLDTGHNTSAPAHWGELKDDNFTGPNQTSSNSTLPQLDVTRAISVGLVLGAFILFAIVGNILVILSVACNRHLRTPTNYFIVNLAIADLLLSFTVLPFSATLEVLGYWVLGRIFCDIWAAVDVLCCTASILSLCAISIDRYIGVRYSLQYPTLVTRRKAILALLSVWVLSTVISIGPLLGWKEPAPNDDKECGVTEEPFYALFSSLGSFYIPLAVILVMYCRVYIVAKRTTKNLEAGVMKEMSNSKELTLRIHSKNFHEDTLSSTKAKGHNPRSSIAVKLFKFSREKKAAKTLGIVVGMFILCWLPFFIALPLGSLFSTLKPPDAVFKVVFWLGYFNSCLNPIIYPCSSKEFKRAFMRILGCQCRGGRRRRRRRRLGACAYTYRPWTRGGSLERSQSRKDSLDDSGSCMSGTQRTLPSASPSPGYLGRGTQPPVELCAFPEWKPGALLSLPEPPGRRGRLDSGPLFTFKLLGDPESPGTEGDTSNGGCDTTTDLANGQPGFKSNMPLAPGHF

[2] = target: T2, Cholecystokinin receptor type A (Homo sapiens, UniProt P32238); assay type: cell membranes, Membrane; details: 1321-n1; further: in other assays of this panel Not Active means under 50% inhibition at 10 µM
T2 sequence (P32238 whole entry): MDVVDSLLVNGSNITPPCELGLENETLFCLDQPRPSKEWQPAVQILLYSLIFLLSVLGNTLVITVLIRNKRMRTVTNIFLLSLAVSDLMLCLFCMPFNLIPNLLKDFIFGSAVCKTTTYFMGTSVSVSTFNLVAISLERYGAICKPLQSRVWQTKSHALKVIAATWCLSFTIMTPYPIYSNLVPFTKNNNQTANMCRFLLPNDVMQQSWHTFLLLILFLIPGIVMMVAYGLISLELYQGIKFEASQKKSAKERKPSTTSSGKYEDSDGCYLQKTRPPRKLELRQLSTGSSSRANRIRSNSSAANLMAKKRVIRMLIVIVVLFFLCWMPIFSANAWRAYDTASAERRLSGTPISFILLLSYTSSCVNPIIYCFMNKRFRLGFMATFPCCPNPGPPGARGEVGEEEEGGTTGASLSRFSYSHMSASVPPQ

[3] = target: T3, Alpha-2A adrenergic receptor (Homo sapiens, UniProt P08913); assay type: cell membranes, Sf9, Membrane; further: in other assays of this panel Not Active means under 50% inhibition at 10 µM
T3 sequence (P08913 whole entry): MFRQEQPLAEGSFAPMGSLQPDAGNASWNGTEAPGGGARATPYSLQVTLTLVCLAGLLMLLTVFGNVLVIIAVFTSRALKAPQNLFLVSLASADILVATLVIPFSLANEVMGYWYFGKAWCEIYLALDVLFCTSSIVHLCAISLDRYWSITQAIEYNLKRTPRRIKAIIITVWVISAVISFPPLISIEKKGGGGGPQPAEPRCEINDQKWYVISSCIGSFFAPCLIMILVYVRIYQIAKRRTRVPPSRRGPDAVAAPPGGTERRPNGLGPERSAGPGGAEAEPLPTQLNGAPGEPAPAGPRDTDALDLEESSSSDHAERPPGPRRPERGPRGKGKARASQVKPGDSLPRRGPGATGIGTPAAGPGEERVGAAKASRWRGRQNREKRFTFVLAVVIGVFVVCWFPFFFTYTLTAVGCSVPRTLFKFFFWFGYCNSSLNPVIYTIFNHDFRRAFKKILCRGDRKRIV

[4] = DRUGMATRIX: GABAA, Flunitrazepam, Central radioligand binding (ligand: [3H] Flunitrazepam); assay type: cell membranes, Rattus norvegicus, Wistar, Brain, Membrane; details: Not Active = under 50% inhibition at 10 µM
[5] = target: Protein phosphatase 3 catalytic subunit alpha (Homo sapiens, UniProt Q08209); set-up: species or system Escherichia coli;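 further: inhibition of calcineurin (PP2B) enzyme activity, measured with DiFMUP as the substrate; in other assays of this panel Not Active means under 50% inhibition at 10 µM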
Calcitonin receptor = target: T4, Calcitonin receptor (Homo sapiens, UniProt P30988); assay type: cell membranes, Membrane; details: t47d; further: in other assays of this panel Not Active means under 50% inhibition at 10 µM
T4 sequence (P30988 whole entry): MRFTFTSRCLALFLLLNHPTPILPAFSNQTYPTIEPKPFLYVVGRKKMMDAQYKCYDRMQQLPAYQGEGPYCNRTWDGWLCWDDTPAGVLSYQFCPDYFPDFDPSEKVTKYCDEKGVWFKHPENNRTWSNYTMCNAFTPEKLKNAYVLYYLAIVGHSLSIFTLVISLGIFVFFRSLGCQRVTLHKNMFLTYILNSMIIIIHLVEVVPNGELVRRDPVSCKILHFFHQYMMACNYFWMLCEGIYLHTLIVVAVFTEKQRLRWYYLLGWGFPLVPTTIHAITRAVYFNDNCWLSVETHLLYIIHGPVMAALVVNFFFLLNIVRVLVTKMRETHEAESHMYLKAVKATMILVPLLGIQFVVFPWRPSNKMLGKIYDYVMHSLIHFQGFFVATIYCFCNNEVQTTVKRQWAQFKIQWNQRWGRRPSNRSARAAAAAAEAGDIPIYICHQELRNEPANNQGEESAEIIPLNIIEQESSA

SMILES | IC50 (Melanocortin receptor 4) | IC50 [1] | IC50 [2] | IC50 ([3]; sf9) | IC50 [4] | Ki [4] | IC50 [5] | IC50 (Calcitonin receptor) | IC50 ([3]; read-out: IC50) | Ki ([3]; read-out: Ki)
CNCCc1ccccn1 [BETAHISTINE] | Not Active | Not Active | Not Active | Not Active | Not Active | Not Active | Not Active | Not Active |  | 
CC(C)C(Br)C(=O)NC(N)=O (centres undefined) [BROMISOVALUM] | Not Active | Not Active | Not Active | Not Active | Not Active | Not Active | Not Active | Not Active |  | 
CCCC1O[C@@H]2C[C@H]3[C@@H]4CCC5=CC(=O)C=C[C@]5(C)[C@H]4[C@@H](O)C[C@]3(C)[C@]2(C(=O)CO)O1 (some centres undefined) [BUDESONIDE] | Not Active | Not Active | Not Active | Not Active | Not Active | Not Active | Not Active | Not Active |  | 
CC(NC(C)(C)C)C(=O)c1cccc(Cl)c1 (centres undefined) [BUPROPION] | Not Active | Not Active | Not Active | Not Active | Not Active | Not Active | Not Active | Not Active |  | 
CN(Cc1ccc(C(C)(C)C)cc1)Cc1cccc2ccccc12 [BUTENAFINE] | Not Active | Not Active | Not Active |  | Not Active | Not Active | Not Active | Not Active | 3640 nM | 1370 nM
C[C@H](CS)C(=O)N1CCC[C@H]1C(=O)O [CAPTOPRIL] | Not Active | Not Active | Not Active | Not Active | Not Active | Not Active | Not Active | Not Active |  | 
Cc1ccc(-c2cc(C(F)(F)F)nn2-c2ccc(S(N)(=O)=O)cc2)cc1 [CELECOXIB] | Not Active | Not Active | Not Active | Not Active | Not Active | Not Active | Not Active | Not Active |  | 
O=C(O)CCCc1ccc(N(CCCl)CCCl)cc1 [CHLORAMBUCIL] | Not Active | Not Active | Not Active | Not Active | Not Active | Not Active | Not Active | Not Active |  | 
C[C@H](CCC(=O)O)[C@H]1CC[C@H]2[C@@H]3[C@H](O)C[C@@H]4C[C@H](O)CC[C@]4(C)[C@H]3C[C@H](O)[C@]12C [CHOLIC ACID] | Not Active | Not Active | Not Active | Not Active | Not Active | Not Active | Not Active | Not Active |  | 
Cc1cc(C2CCCCC2)n(O)c(=O)c1 [CICLOPIROX] | Not Active | Not Active | Not Active | Not Active | Not Active | Not Active | Not Active | Not Active |  | 
CC1=C2C(=CO[C@H](C)[C@H]2C)C(O)=C(C(=O)O)C1=O [CITRININ] | Not Active | Not Active | Not Active | Not Active | Not Active | Not Active | Not Active | Not Active |  | 
CC(C)(C)NCC(O)c1cc(Cl)c(N)c(Cl)c1 (centres undefined) [CLENBUTEROL] | Not Active | Not Active | Not Active | Not Active | Not Active | Not Active | Not Active | Not Active |  | 
CC(C)(Oc1ccc(Cl)cc1)C(=O)O [CLOFIBRIC ACID] | Not Active | Not Active | Not Active | Not Active | Not Active | Not Active | Not Active | Not Active |  | 
Cc1cc(C(C#N)c2ccc(Cl)cc2)c(Cl)cc1NC(=O)c1cc(I)cc(I)c1O (centres undefined) [CLOSANTEL] | Not Active | Not Active | Not Active | Not Active | Not Active | Not Active | Not Active | Not Active |  | 
Cc1onc(-c2ccccc2Cl)c1C(=O)N[C@@H]1C(=O)N2[C@@H]1SC(C)(C)[C@@H]2C(=O)O [CLOXACILLIN] | Not Active | Not Active | Not Active | Not Active | Not Active | Not Active | Not Active | Not Active |  | 
CC1CC(OC(=O)C(O)c2ccccc2)CC(C)(C)C1 (centres undefined) [CYCLANDELATE] | Not Active | Not Active | Not Active | Not Active | Not Active | Not Active | Not Active | Not Active |  | 
Cc1c2oc3c(C)ccc(C(=O)N[C@@H]4C(=O)N[C@H](C(C)C)C(=O)N5CCC[C@H]5C(=O)N(C)CC(=O)N(C)[C@@H](C(C)C)C(=O)O[C@@H]4C)c3nc-2c(C(=O)N[C@@H]2C(=O)N[C@H](C(C)C)C(=O)N3CCC[C@H]3C(=O)N(C)CC(=O)N(C)[C@@H](C(C)C)C(=O)O[C@@H]2C)c(N)c1=O [DACTINOMYCIN] (I: T[dV]P[Sar][NMeV] / II: T[dV]P[Sar][NMeV]; ester I:1-I:C, II:1-II:C; linker I:N-II:N via Actinocin(1to9)) | Not Active | Not Active | Not Active | Not Active | Not Active | Not Active | Not Active | Not Active |  | 
Cc1c(O)c(=O)ccn1C [DEFERIPRONE] | Not Active | Not Active | Not Active | Not Active | Not Active | Not Active | Not Active | Not Active |  | 
CNCCCN1c2ccccc2CCc2ccccc21 [DESIPRAMINE] | Not Active | Not Active | Not Active | Not Active | Not Active | Not Active | Not Active | Not Active |  | 
O=c1oc2ccccc2c(O)c1Cc1c(O)c2ccccc2oc1=O [DICUMAROL] | Not Active | Not Active | Not Active | Not Active | Not Active | Not Active | Not Active | Not Active |  | 
C[C@H]1O[C@@H](O[C@H]2[C@@H](O)C[C@H](O[C@H]3[C@@H](O)C[C@H](O[C@H]4CC[C@@]5(C)[C@H](CC[C@@H]6[C@@H]5C[C@@H](O)[C@]5(C)[C@@H](C7=CC(=O)OC7)CC[C@]65O)C4)O[C@@H]3C)O[C@@H]2C)C[C@H](O)[C@@H]1O [DIGOXIN] | Not Active | Not Active | Not Active | Not Active | Not Active | Not Active | Not Active | Not Active |  | 
